One assay deals with Plasmopara viticola. In words: Antisporulant activity against vine downy mildew (PVA). The format is in vivo. The following applies: vine leaves, antisporulant foliar spray, 600 ppm, 750 l/ha. An outline of the steps: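 Cabernet Sauvignon vines (~8 cm) inoculated on lower leaf surfaces with 5×10^4 zoosporangia/ml, held 24 h at 21° C high humidity then 24 h glasshouse. Infected leaves sprayed underside with 600 ppm compound in 1:1 water/acetone, 0.04% Tween 20, 750 l/ha; 96 h glasshouse, 24 h humidity. Sporulating leaf area rated versus control.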

A further assay concerns Alternaria solani. Kind of assay: Activity against tomato early blight (AS). Format: in vivo. The following applies: Table VI; tomato seedlings, contact prophylactic foliar spray, 4 days. An outline of the steps:
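Foliar contact prophylactic spray on tomato seedlings (cv Outdoor Girl, second true leaf expanded) in acetone/water 50:50 with 0.04% Tween 20; 24 h at 20° C, 40% R.H., then inoculation with 10^4 spores/ml A. solani conidia. Kept moist at 21° C; lesion cover rated 4 days post-inoculation against untreated or diluent-sprayed controls.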

The next assay concerns Botrytis cinerea. In words: Direct protectant activity against broad bean grey mould (BCB). Format: in vivo. The following applies: direct protectant foliar spray, 600 ppm, 4 days. An outline of the steps: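 Broad bean plants (cv The Sutton, two leaf pairs) sprayed on upper leaf surfaces at 600 ppm, then inoculated 24 h later with 10^6 conidia/ml. Kept 4 days at 22 °C, high humidity; disease control rated from % leaf area with lesions against untreated or diluent controls.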

The test system of a further assay is Leptosphaeria nodorum. Kind of assay: Activity against wheat leafspot (LN). To be noted: direct therapeutic foliar spray, 600 ppm, 6-8 days. Format: in vivo. An outline of the steps: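 Wheat cv Norman at single-leaf stage spray-inoculated with 1.5×10^6 conidia/ml, held 24 h at high humidity, then sprayed therapeutically with test compound at 600 ppm. Kept 6-8 days at 22° C, 70% humidity; lesion density per leaf rated against untreated or diluent-sprayed controls.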

The test system of assay [1] is Erysiphe graminis f.sp. hordei. Kind of assay: Activity against barley powdery mildew, direct therapeutic (EGT). Format: in vivo. The following applies: direct therapeutic foliar spray, 600 ppm, up to 7 days. An outline of the steps:
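Barley seedlings (cv. Golden Promise, single-leaf stage) were dusted with mildew conidia one day before a therapeutic foliar spray of 600 ppm compound. Plants were kept at 18 °C and 40% humidity for up to 7 days, and sporulating leaf area was rated against untreated or diluent-sprayed controls.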

For assay [2], the system named is Erysiphe graminis f.sp. hordei. In words: Direct protectant activity against barley powdery mildew (EGP). Format: in vivo. The following applies: direct protectant foliar spray, 8 days. An outline of the steps: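 Barley seedlings (cv Golden Promise, single-leaf stage) were foliar-sprayed, held 24 h at 18 °C/40% RH, then dusted with mildew conidia. After 8 days at 18 °C/40% RH, sporulating leaf area was scored as a rating against untreated or diluent-sprayed controls.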

For the next assay, the system named is Phytophthora infestans. The format is in vivo. The following applies: tomato, direct protectant foliar spray.
In assay [3] the test system is Pseudocercosporella herpotrichoides. In words: Activity against wheat eyespot in-vitro (PHI). The format is cell-based. To be noted: 10 ppm, 10 days, 20° C., mycelial growth. An outline of the steps: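 P. herpotrichoides mycelial fragments (5×10^4/ml) grown in half-strength PDB with compound at 10 ppm final, added from acetone. Incubated 10 days at 20 °C; mycelial growth rated against untreated or diluent controls.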

The test system of the next assay is Rhizoctonia solani. In words: Activity against Rhizoctonia in-vitro (RSI). The format is cell-based. The following applies: 10 ppm, 10 days, 20° C., mycelial growth. An outline of the steps: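 R. solani mycelial fragments (5×10^4/ml) in half-strength Potato Dextrose Broth with compound added from acetone to 10 ppm final. Mycelial growth assessed after 10 days at 20° C, rated against untreated or diluent control.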

The next assay deals with Venturia inaequalis. Kind of assay: Activity against apple scab in-vitro (VII). Format: cell-based. To be noted: 10 ppm, 10 days, 20° C., mycelial growth. An outline of the steps:
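Compound in acetone was tested at 10 ppm final in half-strength Potato Dextrose Broth inoculated with V. inaequalis mycelial fragments and spores at 5×10^4 propagules/ml. After 10 days at 20° C, mycelial growth was rated against untreated or diluent controls.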

The next assay concerns Pyricularia oryzae. The format is in vivo. To be noted: rice seedlings, direct therapeutic foliar spray, 600 ppm, 4-5 days.

For the compound `CCCCCCCCNC1COC2(C1)C1CC3CC(C1)CC2C3` (stereo not shown) [Compound 115], in the assay on Plasmopara viticola, the “disease control rating PVA” value was 0 (less than 50% disease control). The “disease control rating AS” value in the assay on Alternaria solani is 0 (less than 50% disease control). Also, the “disease control rating BCB” value in the assay on Botrytis cinerea is listed as 0 (less than 50% disease control). In the assay with Leptosphaeria nodorum, the “disease control rating LN” value is given as 0 (less than 50% disease control). The “disease control rating EGT” value in [1] is 2 (greater than 80% disease control). Also, in assay [2], the “disease control rating EGP” value was 2 (greater than 80% disease control). Moreover, the “disease control rating PIP” value with Phytophthora infestans is 1 (about 50-80% disease control). Besides, the “disease control rating PHI” value in assay [3] is 1 (about 50-80% disease control). The “disease control rating RSI” value in the assay with Rhizoctonia solani is on record as 0 (less than 50% disease control). Besides, the “disease control rating VII” value in the assay on Venturia inaequalis is recorded as 2 (greater than 80% disease control). For the same compound, in the assay on Pyricularia oryzae, the “disease control rating PO” value is 0 (less than 50% disease control).

`CC(C)(C)C1CCC2(CC1)CC(N1CCCC3CCCCC31)CO2` (stereo not shown) [Compound 116]: the “disease control rating PVA” value in the assay on Plasmopara viticola is recorded as 0 (less than 50% disease control). The “disease control rating AS” value with Alternaria solani is recorded as 0 (less than 50% disease control). The “disease control rating BCB” value in the assay with Botrytis cinerea is on record as 1 (about 50-80% disease control). Also, the “disease control rating LN” value with Leptosphaeria nodorum is 0 (less than 50% disease control). In addition, the “disease control rating EGT” value in assay [1] is recorded as 2 (greater than 80% disease control). Moreover, the “disease control rating EGP” value in [2] is listed as 2 (greater than 80% disease control). Besides, the “disease control rating PIP” value with Phytophthora infestans is listed as 0 (less than 50% disease control). Further, the “disease control rating PHI” value in assay [3] is given as 0 (less than 50% disease control). Further, the “disease control rating RSI” value in the assay on Rhizoctonia solani is 0 (less than 50% disease control). In the assay with Venturia inaequalis, the “disease control rating VII” value is reported as 2 (greater than 80% disease control). Besides, the “disease control rating PO” value with Pyricularia oryzae is reported as 0 (less than 50% disease control).

As to `CN(CCC1CCCCC1)C1COC2(CCC(C(C)(C)C)CC2)C1` (stereo not shown) [Compound 117], the “disease control rating PVA” value with Plasmopara viticola is recorded as 0 (less than 50% disease control). In addition, the “disease control rating AS” value in the assay on Alternaria solani is given as 2 (greater than 80% disease control). Besides, in the assay with Botrytis cinerea, the “disease control rating BCB” value is listed as 0 (less than 50% disease control). Moreover, the “disease control rating LN” value with Leptosphaeria nodorum is listed as 0 (less than 50% disease control). Further, the “disease control rating EGT” value in assay [1] is 2 (greater than 80% disease control). The “disease control rating EGP” value in [2] is recorded as 2 (greater than 80% disease control). Besides, the “disease control rating PIP” value in the assay with Phytophthora infestans is 0 (less than 50% disease control). Moreover, the “disease control rating PHI” value in assay [3] is on record as 1 (about 50-80% disease control). Moreover, the “disease control rating RSI” value in the assay with Rhizoctonia solani was 1 (about 50-80% disease control). In addition, in the assay on Venturia inaequalis, the “disease control rating VII” value is reported as 1 (about 50-80% disease control). Also, in the assay with Pyricularia oryzae, the “disease control rating PO” value is on record as 0 (less than 50% disease control).

In the case of `CCN(CCC1CCCCC1)C1COC2(CCC(C(C)(C)C)CC2)C1` (stereo not shown) [Compound 118], the “disease control rating PVA” value with Plasmopara viticola is given as 2 (greater than 80% disease control). Also, the “disease control rating AS” value in the assay on Alternaria solani was 0 (less than 50% disease control). Besides, in the assay with Botrytis cinerea, the “disease control rating BCB” value is reported as 0 (less than 50% disease control). Besides, the “disease control rating LN” value in the assay with Leptosphaeria nodorum is 0 (less than 50% disease control). Moreover, in assay [1], the “disease control rating EGT” value is listed as 2 (greater than 80% disease control). In addition, in assay [2], the “disease control rating EGP” value is 2 (greater than 80% disease control). Moreover, the “disease control rating PIP” value in the assay on Phytophthora infestans is 0 (less than 50% disease control). Further, in assay [3], the “disease control rating PHI” value is given as 1 (about 50-80% disease control). Moreover, the “disease control rating RSI” value in the assay with Rhizoctonia solani is on record as 1 (about 50-80% disease control). Moreover, the “disease control rating VII” value in the assay on Venturia inaequalis is on record as 1 (about 50-80% disease control). Besides, in the assay on Pyricularia oryzae, the “disease control rating PO” value is reported as 0 (less than 50% disease control).

On to `CCCN(CCC1CCCCC1)C1COC2(CCC(C(C)(C)C)CC2)C1` (stereo not shown) [Compound 119], for which the “disease control rating PVA” value in the assay on Plasmopara viticola is 0 (less than 50% disease control). Also, the “disease control rating AS” value in the assay with Alternaria solani was 0 (less than 50% disease control). Moreover, the “disease control rating BCB” value with Botrytis cinerea was 0 (less than 50% disease control). Moreover, the “disease control rating LN” value in the assay with Leptosphaeria nodorum is on record as 0 (less than 50% disease control). Further, the “disease control rating EGT” value in assay [1] is on record as 2 (greater than 80% disease control). The “disease control rating EGP” value in assay [2] is reported as 2 (greater than 80% disease control). In addition, in the assay with Phytophthora infestans, the “disease control rating PIP” value is given as 0 (less than 50% disease control). In [3], the “disease control rating PHI” value is on record as 1 (about 50-80% disease control). Besides, the “disease control rating RSI” value in the assay with Rhizoctonia solani is listed as 0 (less than 50% disease control). Besides, the “disease control rating VII” value with Venturia inaequalis is reported as 1 (about 50-80% disease control). The “disease control rating PO” value with Pyricularia oryzae is 0 (less than 50% disease control).

With `CC1(CNC2COC3(CCC(C(C)(C)C)CC3)C2)CCCCC1` (stereo not shown) [Compound 120], in the assay on Plasmopara viticola, the “disease control rating PVA” value is 0 (less than 50% disease control). The “disease control rating AS” value with Alternaria solani is listed as 0 (less than 50% disease control). For the same compound, in the assay on Botrytis cinerea, the “disease control rating BCB” value is 1 (about 50-80% disease control). For the same compound, in the assay on Leptosphaeria nodorum, the “disease control rating LN” value was 0 (less than 50% disease control). Besides, the “disease control rating EGT” value in assay [1] is reported as 2 (greater than 80% disease control). For the same compound, the “disease control rating EGP” value in [2] is reported as 2 (greater than 80% disease control). In addition, the “disease control rating PIP” value in the assay with Phytophthora infestans is on record as 0 (less than 50% disease control). Further, the “disease control rating PHI” value in assay [3] was 0 (less than 50% disease control). In the assay with Rhizoctonia solani, the “disease control rating RSI” value was 1 (about 50-80% disease control). Besides, in the assay on Venturia inaequalis, the “disease control rating VII” value is recorded as 1 (about 50-80% disease control). For the same compound, in the assay on Pyricularia oryzae, the “disease control rating PO” value is 0 (less than 50% disease control).

Turning to `CC(C)CN(C)C1COC2(CCC(C(C)(C)C)CC2)C1` (stereo not shown) [Compound 121], the “disease control rating PVA” value in the assay on Plasmopara viticola is 0 (less than 50% disease control). For the same compound, the “disease control rating AS” value in the assay with Alternaria solani is on record as 0 (less than 50% disease control). The “disease control rating BCB” value in the assay with Botrytis cinerea is reported as 0 (less than 50% disease control). In addition, the “disease control rating LN” value with Leptosphaeria nodorum is on record as 0 (less than 50% disease control). The “disease control rating EGT” value in [1] was 2 (greater than 80% disease control). For the same compound, the “disease control rating EGP” value in assay [2] was 2 (greater than 80% disease control). Besides, the “disease control rating PIP” value with Phytophthora infestans is given as 0 (less than 50% disease control). Further, the “disease control rating PHI” value in assay [3] is reported as 0 (less than 50% disease control). In addition, in the assay on Rhizoctonia solani, the “disease control rating RSI” value is 0 (less than 50% disease control). Besides, the “disease control rating VII” value in the assay with Venturia inaequalis was 0 (less than 50% disease control). For the same compound, the “disease control rating PO” value in the assay on Pyricularia oryzae is on record as 0 (less than 50% disease control).

With `CC(C)N(CCC1CCCCC1)C1COC2(CCC(C(C)(C)C)CC2)C1` (stereo not shown) [Compound 122], in the assay with Plasmopara viticola, the “disease control rating PVA” value is listed as 0 (less than 50% disease control). Further, the “disease control rating AS” value in the assay with Alternaria solani is on record as 0 (less than 50% disease control). Further, the “disease control rating BCB” value in the assay with Botrytis cinerea is on record as 0 (less than 50% disease control). For the same compound, in the assay on Leptosphaeria nodorum, the “disease control rating LN” value is 0 (less than 50% disease control). In addition, the “disease control rating EGT” value in assay [1] is reported as 2 (greater than 80% disease control). Also, the “disease control rating EGP” value in assay [2] is on record as 2 (greater than 80% disease control). For the same compound, in the assay with Phytophthora infestans, the “disease control rating PIP” value is listed as 0 (less than 50% disease control). For the same compound, the “disease control rating PHI” value in [3] was 0 (less than 50% disease control). Further, the “disease control rating RSI” value in the assay on Rhizoctonia solani is 0 (less than 50% disease control). Besides, in the assay with Venturia inaequalis, the “disease control rating VII” value was 0 (less than 50% disease control). Also, the “disease control rating PO” value in the assay on Pyricularia oryzae was 2 (greater than 80% disease control).

Source of the values: patent US5591741A, “Fungicidal spiroheterocyclic derivatives” (American Cyanamid Company, priority 1993, dated 1997).
